Experimental data as given in US8865672B2, “Prevention of tissue ischemia and related methods” (The United States of America, as represented by the …, priority 2006, dated 2014).
Peptide text beside a SMILES is read from it. * marks the point of attachment. Biotin = O=C1N[C@H]2[C@H](CS[C@H]2CCCCC(=O)*)N1

Legend:
[1] = test system: HASMC; assay: Intracellular cGMP in HASMC; type: cell-based, human; details: DEA/NO 10 μM, 5 minutes
[2] = test system: HUVEC; assay: Intracellular cGMP in HUVEC; type: cell-based, human; details: DEA/NO 10 μM
Method: HUVEC (10^4 cells/well) grown overnight in 96-well culture plates containing full growth medium with 2% FCS and weaned in growth medium without additives and 1% FCS over 24 hrs before treatment with NO donors and other agents in SM-GM without additives+0.1% BSA. Intracellular cGMP levels were determined according to the manufacturer's instructions using an enzyme immunoassay kit (Amersham Biosciences). In other experiments ASMC from wild type and CD36 or CD47 null mice were plated onto 96-well culture plates and incubated overnight in full growth medium. They were then weaned off serum as described to SM-GM+0.1% BSA and treated with NO donor and other agents as indicated. Intracellular cyclic nucleotides were determined via immunoassay.

[3] = test system: HASMC; assay: NO-stimulated HASMC adhesion on type I collagen; type: cell-based, human; details: DEA/NO 10 μM
Method: Cell adhesion was carried out in 96-well culture plates. After pre-coating wells with type I collagen (3 μg/ml in DPBS) harvested cells were plated at a density of 1×10^4 cells/well in medium plus 0.1% BSA and treatment agents and incubated in 5% CO2 for 1 h. Wells were washed with PBS and cells fixed with 1% glutaraldehyde for 10 min., washed and stained with 1% crystal violet for 20 min. Excess stain was rinsed away, adherent cells treated with 10% acetic acid, and plates read at 570 nm.

[4] = target: T1, CD47 IgV domain / SIRP IgV domain (Homo sapiens, UniProt Q08722); assay: ELISA of SIRP IgV domain binding to CD47 IgV domain; details: Fc-SIRP IgV on protein A plates, alkaline phosphatase-CD47 IgV
T1 construct: alkaline phosphatase fusions of the CD47 IgV domain
T1 sequence (Q08722 19-127 limits assumed): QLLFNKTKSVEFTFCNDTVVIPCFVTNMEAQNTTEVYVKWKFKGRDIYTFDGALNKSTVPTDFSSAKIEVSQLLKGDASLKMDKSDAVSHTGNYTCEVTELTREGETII
Excerpt: SIRP-alpha (Signal Inhibitory Regulatory Protein Alpha; SIRPα) and the closely related SIRP-gamma (SIRPγ formerly called SIRP-beta) are two ligands of CD47. They consist of an N-terminal IgV set domain and variable numbers of 1 g domains followed by a transmembrane segment and variously spliced cytoplasmic tails, some of which contain phosphorylatable tyrosines that constitute docking sites for tyrosine phosphatases such as SHP-1 and SHP-2. The IgV domain of SIRP-alpha and -gamma are high affinity ligands of CD47 with species specificity thought to allow self vs. non-self discrimination by phagocytes. The binding of the IgV domain of SIRPα to the IgV domain of CD47 can be measured in a simple ELISA assay using recombinant versions of each protein. For this purpose we have employed Fc-fusions of SIRP IgV domain and alkaline phosphatase fusions of the CD47 IgV domain. The Fc-IgV protein is adsorbed to well plates coated with protein A to which the Fc binds. Potential inhibitors are added and the binding of alkaline phosphatase-conjugated CD47 IgV domain is measured by routine procedures.

[5] = test system: NO/cGMP signaling; assay: cGMP signaling (NO-stimulated cGMP, immunoassay); type: cell-based, human; details: concentration for 50% inhibition of effect
Method: (§1) Vascular cells (endothelial) or HT-1080 cells (10^4 cells/well) grown overnight in 12-well culture in SM-GM containing 2% FCS or RPMI+10% FCS respectively and then weaned off serum over 48 h before treatment with NO donors and other agents in serum/additive free medium+0.1% BSA. Intracellular cGMP levels were determined using an enzyme immunoassay (Amersham, GE Health Care, UK). In other experiments fresh washed human platelets were incubated in Tyrode's buffer and the indicated treatment agents±NO and cGMP determined.

[6] = test system: endothelial cells and platelets; assay: NO-stimulated cGMP flux in endothelial cells and platelets (Example 9); type: cell-based, human; details: 10 μM DEA/NO
Method: as §1
Endothelial cells (FIG. 62C) and platelets (FIG. 62D) in basal medium without serum or Tyrode's buffer respectively were treated with the indicated peptides±NO (10 μM DEA/NO) and cGMP levels determined.

[7] = test system: VSMC and endothelial cells; assay: NO-stimulated adhesion of VSMC and endothelial cells to type I collagen (Example 9); type: cell-based; details: 10 μM DEA/NO
Method: Vascular cells (VSMC or endothelial) were plated at 10,000 cells/well onto 96-well plates (Maxisorb, Nunc) precoated with type I collagen (3 μg/ml). […] Plates were then washed with PBS, fixed with glutaraldehyde, stained with crystal violet, and washed. Absorbed stain was solubilized with acetic acid from fixed cells and the resulting color signal determined on a MR580Microelisa Auto Reader, (Dynatech, Alexandria, Va.) at 450 nm wavelength.

[8] = test system: human platelets; assay: Thrombin-induced human platelet aggregation; type: cell-based; details: low shear, peptide 1 μM, 10 μM DEA/NO
Method in brief: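 Washed human platelets in Tyrode's buffer pH 7.4 (2×10^5/μl) are stirred at 1200 rpm and 37 °C, and optical aggregation is followed for 5 min; under static conditions, A400 is tracked for 5 min instead. TSP1 agents or 1 μM peptide C6d are pre-incubated for 15 min before thrombin ± DEA/NO (10 μM).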

[9] = test system: Rap1; assay: Rap1 pulldown assay in platelets; type: cell-based, human; details: thrombin
Method: Platelets were diluted to 5×10^8 platelets/mL in Tyrode's buffer and treated with various reagents for the indicated times. Immediately following treatment, platelets were pelleted at 13,000 g for 30 seconds at 4° C. and resuspended in ice-cold lysis buffer containing 20 mM HEPES (pH 7.5), 100 mM NaCl, 10 mM EGTA, 20 mM MgCl2, 8 mM α-glycerophosphate, 1% Triton X-100, 1 mM phenylmethylsulfonylfluoride, 40 mM NaF, 1 mM Na3VO4, 10 μg/mL aprotinin, and 10 μg/mL leupeptin. Lysates were centrifuged at 13,000 g for 5 minutes at 4° C. and the supernatants were incubated for 15 minutes on a tumbler at 4° C. with glutathione Sepharose 4B beads (Amersham) prebound with a GST-Ral GDS RBD fusion protein (kind gift of J. Silvio Gutkind, NIH, Bethesda, Md.). Bead complexes were washed by centrifugation at 6,000 g for 30 seconds at 4° C. followed by resuspension in 0.5 mL lysis buffer; 2 washes were performed for each sample. After the second wash, beads were resuspended in an equal volume of 2×SDS sample buffer and stored at −20° C. For Western analysis, bead-bound proteins in sample buffer were boiled for 10 minutes and subjected to electrophoresis on NuPAGE 10% Bis-Tris gels (Invitrogen, Carlsbad, Calif.), transferred to Immobilon-P PVDF membranes (Millipore, Billerica, Mass.), and blotted with rabbit polyclonal anti-Rapt (sc-65; Santa Cruz Biotechnology, Santa Cruz, Calif.).

[10] = test system: VASP; assay: Phospho-Ser239 VASP Western blotting in platelets; type: cell-based, human; details: 8Br-cGMP 100 μM, TSP1 2.2 nM
Method: Washed human platelets (resuspended in Tyrode's buffer to 3×10^8 platelets/mL to a final volume of 0.5 mL) were incubated at 37° C. for 30 minutes before treatment. TSP1 was added 15 minutes prior to treatment. Immediately following treatment, platelets were pelleted at 13,000×g at 4° C. for 15 seconds and resuspended in 1 mL of a lysis buffer containing 10 mM Tris-HCl (pH 7.5), 150 mM NaCl, 1 mM EDTA, 1 mM Na3VO4, 40 mM NaF, 1 μg/mL aprotinin, 1 μg/mL leupeptin, 1 mM phenylmethysulfonylfluoride and 1% […]. This suspension was placed at 4° C. with gentle agitation for 5 minutes before centrifugation at 13000×g for 5 minutes at 4° C. 5 μg lysates were electrophoresed on 4-12% Bis-Tris NuPAGE gels, transferred to Immobilon PVDF membranes and probed with a rabbit polyclonal antiserum against Serine 239-phosphorylated VASP (Santa Cruz Biotechnology, Santa Cruz, Calif.).

[11] = test system: murine WT and TSP1-null platelets; assay: Thrombin-induced murine platelet aggregation; type: cell-based, mouse; details: high shear
Method: Aggregation of human platelets under high shear conditions was assessed using a standard optical aggregometer (Lumi-Dual Aggregometer, Chrono-Log Corp., Havertown, Pa.) at 37° C. and 1200 rpm in a volume of 500 μl buffer with a final platelet concentration of 2×10^5 platelets/μl over a 5 minute interval. Pre-incubation with TSP1 and TSP1-based agents was for 15 minutes prior to addition of thrombin and/or the rapidly releasing nitric oxide donor DEA/NO. In some experiments platelets were pre-incubated with the Rap1 inhibitor GGTI-298 (10 μM) (Calbiochem, La Jolla, Calif.) for 30 minutes prior to initiating aggregation. In other high shear aggregation experiments murine platelets were prepared as above with the following modifications. Mouse blood was collected by retro-orbital bleeding of anesthetized mice using heparinized tubes. PRP was prepared and then diluted with 4 vol. of Tyrodes containing 5 mM EDTA to prevent activation. After collection by centrifugation, platelets were resuspended in 2× initial PRP volume and held at room temperature for less than 1 hour before use. […] Platelet aggregation under static conditions was assessed using a spectrophotometer (Beckman DU 640, Beckman Coulter, Fullerton, Calif.) and determined as a change in absorbance at 400 nm with continuous observation over a five minute interval. […]

E3CaG1: recombinant C-terminal regions of TSP1
NO-stimulated cGMP levels in HASMC [1]: equipotent dose-dependent inhibitors | NO-driven cGMP production [2]: potently inhibited | concentration that inhibited NO-driven HASMC adhesion to collagen [3]: > 0.4 nM

CC[C@H](C)[C@H](N)C(=O)NCC(=O)N[C@@H](Cc1c[nH]c2ccccc12)C(=O)N[C@@H](CCCCN)C(=O)N[C@@H](CC(=O)O)C(=O)N[C@@H](Cc1ccc(O)cc1)C(=O)N[C@H](C(=O)N[C@@H](C)C(=O)N[C@@H](Cc1ccc(O)cc1)C(=O)N[C@@H](CCCNC(=N)N)C(=O)O)[C@@H](C)O [compound 37298, IGWKDYTAYR] (H-IGWKDYTAYR-OH)
inhibition of binding of the SIRP IgV domain to CD47 [4]: can inhibit the binding | IC50 [5]: ~100 nM

CC[C@H](C)[C@H](NC(=O)CCCC[C@@H]1SC[C@@H]2NC(=O)N[C@@H]21)C(=O)NCC(=O)N[C@@H](Cc1c[nH]c2ccccc12)C(=O)N[C@@H](CCCCN)C(=O)N[C@@H](CC(=O)O)C(=O)N[C@@H](Cc1ccccc1)C(=O)N[C@H](C(=O)N[C@@H](C)C(=O)N[C@@H](Cc1ccc(O)cc1)C(=O)N[C@@H](CCCNC(=N)N)C(=O)O)[C@@H](C)O [C6d, biotin-IGWKDFTAYR] (Biotin-IGWKDFTAYR-OH)
NO-stimulated cGMP flux [6]: Blocked | NO-stimulated adhesion to type I collagen [7]: blocked in a dose-dependent manner | IC50 [5]: ~100 nM | NO delay of thrombin-stimulated aggregation [8]: completely reversed

Nc1nc2c(nc(Br)n2[C@@H]2O[C@@H]3COP(=O)(O)O[C@H]3[C@H]2O)c(=O)[nH]1 [8Br-cGMP, 8-Bromo cyclic guanine monophosphate, reference compound]
Rap1 activation (GTP loading) [9]: inhibited this activation | VASP phosphorylation at Ser239 [10]: stimulates VASP phosphorylation at Ser239 | thrombin-induced aggregation ([11]; TSP1-null platelets): rendered TSP1-null platelets resistant to thrombin-induced aggregation | thrombin-induced aggregation ([11]; WT murine platelets): substantially inhibited aggregation of WT murine platelets

CC[C@H](C)[C@H](NC(=O)[C@@H](N)Cc1c[nH]cn1)C(=O)NCC(=O)N[C@@H](Cc1c[nH]c2ccccc12)C(=O)N[C@@H](CCCCN)C(=O)N[C@@H](CC(=O)O)C(=O)N[C@@H](Cc1ccccc1)C(=O)N[C@H](C(=O)N[C@@H](C)C(=O)N[C@@H](Cc1ccc(O)cc1)C(=O)N[C@@H](CCCNC(=N)N)C(=O)N[C@@H](Cc1c[nH]c2ccccc12)C(=O)N[C@@H](CCCNC(=N)N)C(=O)N[C@@H](CC(C)C)C(=O)N[C@@H](CO)C(=O)O)[C@@H](C)O [C6b, HIGWKDFTAYRWRLS] (H-HIGWKDFTAYRWRLS-OH)
NO-stimulated cGMP flux [6]: Blocked | NO-stimulated adhesion to type I collagen [7]: blocked in a dose-dependent manner | IC50 [5]: ~100 nM
